The text below walks through data of patent US20120107428A1, “REPELLENTS FOR PESTIFEROUS SOCIAL WASPS” (Sterling International Inc., priority 2010, published 2012).

Holding throughout (format): in vivo
In assay [1] the test system is Yellowjackets (mainly Vespula pensylvanica (ca. 90%), plus V. vulgaris, V. germanica, and Dolichovespula maculata). Kind of assay: Field trapping, Rescue W•H•Y traps baited with attractant heptyl butyrate: captures of yellowjackets. The note with it: Table 5, Experiment 5; treatment alone (essential oil mix alone, or attractant HB alone); 13 days in September; N 18. How it is done:
(§1) Eleven field trapping experiments were carried out from late August to mid-October 2009 in residential and woody areas around Spokane, Wash., USA, mostly using the trap known by the designation Rescue® W•H•Y (except on one occasion that Rescue® Reusable Yellowjacket Traps were used for a natural food attractant; see below for details). The commercial W•H•Y trap has a top chamber and a bottom chamber and is described in U.S. Patent Application Publication No. 2009/0151228. The top chamber is baited with two attractants—one of which is a solid contained in a vial (2-methyl-1-butanol), and the other is a liquid mixed with water (acetic acid). The bottom chamber is baited with a liquid attractant (heptyl butyrate) poured onto a cotton pad. Separation of the two types of attractants (otherwise antagonistic to each other when released from the same chamber) in two chambers creates two focal attraction sources from one trap for different species of wasps, hornets, and yellowjackets. In order to test potential repellency of essential oils or EAD-active synthetic candidate compounds on different types of attractants, W•H•Y traps were baited with either a top attractant or a bottom attractant depending on the experiments. […]

Assay [2] deals with Paper wasps (mainly Polistes dominulus, plus a few of P. aurifer). The assay can be described thus: Field trapping, Rescue W•H•Y traps baited with attractant heptyl butyrate: captures of paper wasps. On the procedure: as §1
Assay [3] deals with yellowjackets (mainly Vespula pensylvanica). Kind of assay: Field observation of landing and approaching of yellowjackets at heptyl butyrate attractant source (experiment 7). The note with it: Experiment 7, FIG. 1, attractant alone, 15 minutes observation replicates. How it is done: In addition, the repellency of the essential oil mixture (3EO-mix; at 0 cm and 50 cm above the heptyl butyrate attractant) on the landing behavior of yellowjackets was field observed (as experiment 7) on a September day for roughly 1.5 hours in Spokane, Wash. This observation test was conducted in the sun by setting up in a line east to west four portable light gray folding tables (45.7×66.0×67.3 cm) in a level area of grass near a vineyard. These tables were placed approximately 3 m apart. Chairs were set up approximately 4 m away from the tables for the scientists conducting the observations. On each table a black lab support stand was used with a movable metal bar in the horizontal direction clamped to the support stand for placing a repellent PE-bag dispenser (2 ml of 3EO-mix) or blank PE-bag at either 0 cm or 50 cm above the attractant, heptyl butyrate. A white towel was used to cover the black base of the support stand to provide a uniform color. A circle felt pad (3.5 cm diameter) loaded with 3 ml of heptyl butyrate as attractant or left blank for a negative control in a Petri dish (9 cm diameter) was placed on the base of the stand. […]
Trap catch data (number of wasps/trap/visit) and landing/approaching numbers were transformed by log (X+1) and the transformed means were analyzed by ANOVA, followed by the Duncan's multiple-range test (SPSS 16.0 for Windows) at α=0.05.

Molecules are shown by their SMILES.

With `CCCCCCCOC(=O)CCC` [HB, heptyl butyrate], in assay [1], the “Mean/trap/visit ± SE Yellowjackets” value is 39.7 ± 13.6 b wasps/trap/visit. Moreover, the “attraction of paper wasps to heptyl butyrate” value in assay [2] (Experiment 5) is given as “not attracted”. For the same molecule, the “Mean/trap/visit ± SE Paper wasps” value in assay [2] (Table 5, Experiment 5, treatment alone (essential oil mix alone, or attractant HB alone), 13 days in September, N 18) is on record as 1.3 ± 0.6 a wasps/trap/visit. Moreover, the “average number of yellowjackets landing” value in assay [3] is 5. In addition, in assay [3] (within 0.5 m), the “average number of yellowjackets approaching” value is on record as 12.
